Here are results for 25 compounds from patent publication US20250145594A1, “MODULATORS OF THE INTEGRATED STRESS PATHWAY” (Calico Life Sciences LLC, priority 2020, published 2025).

Structures are written as SMILES. Some results are limits rather than exact numbers.

For orientation: EC50 means the concentration giving half of the maximal effect.

For this assay, the system named is ATF4 luciferase reporter in HEK293T cells. Kind of assay: ATF4-Luc assay (in vitro model of VWMD). In kind it is cell-based, human. The conditions noted are these: Homo sapiens, HEK-293T, 7 h, HEK293T cells carrying the ATF4 luciferase reporter, 1 μg/mL tunicamycin, One Glo luminescence. The procedure, abridged: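 Stable HEK293T line expressing firefly luciferase behind the human ATF4 5′-UTR, treated with 1 μg/mL tunicamycin plus compound for 7 hours. Luminescence read with One Glo; EC50 determined.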
(In general: In a reporter assay the amount or activity of a reporter protein is the signal.)

In the case of `O=C(CO[C@H]1C[C@@H](OC(F)(F)F)C1)N[C@@H]1C[C@@H]2C[C@H]1C[C@H]2NC(=O)[C@@H]1C[C@@H](O)c2cc(Cl)ccc2O1` [Compound 393, (2S,4R)-6-chloro-4-hydroxy-N-[(1S,2R,4S,5R)-5-(2-{[cis-3-(trifluoromethoxy)cyclobutyl]oxy}acetamido)bicyclo[2.2.1]heptan-2-yl]-3,4-dihydro-2H-1-benzopyran-2-carboxamide], the concentration giving a half-maximal response (EC50) lay in the range of 50 to 250 nM.
As to `O=C(NC12CC(n3cc(-c4ccc(OC(F)(F)F)cn4)cn3)(C1)C2)[C@H]1C[C@H](O)c2cc(C(F)(F)F)c(F)cc2O1` [Compound 634, (2R,4S)-7-fluoro-4-hydroxy-N-(3-{4-[5-(trifluoromethoxy)pyridin-2-yl]-1H-pyrazol-1-yl}bicyclo[1.1.1]pentan-1-yl)-6-(trifluoromethyl)-3,4-dihydro-2H-1-benzopyran-2-carboxamide], the EC50 was under 10 nM.
Take `O=C(NC12CC(n3cc(-c4ccc(OC(F)(F)F)cn4)cn3)(C1)C2)[C@H]1C[C@@H](O)c2cc(F)ccc2O1` (single isomer, unassigned) [Compound 475]: the EC50 is under 10 nM.
In the case of `O=C(NC12CC(n3cc(C(=O)N4CC(COC(F)(F)F)C4)cn3)(C1)C2)[C@H]1C[C@@H](O)c2cc(Cl)c(F)cc2O1` [Compound 363, (2R,4R)-6-chloro-7-fluoro-4-hydroxy-N-[3-(4-{3-[(trifluoromethoxy)methyl]azetidine-1-carbonyl}-1H-pyrazol-1-yl)bicyclo[1.1.1]pentan-1-yl]-3,4-dihydro-2H-1-benzopyran-2-carboxamide], the EC50 is under 10 nM.
Regarding `O=C(NC12CC(n3cc(OCCCC(F)(F)F)cn3)(C1)C2)[C@H]1CC(O)c2cc(Cl)c(F)cc2O1` (stereo in doubt) [Compound 464, (2R,4R)-6-chloro-7-fluoro-4-hydroxy-N-{3-[4-(4,4,4-trifluorobutoxy)-1H-pyrazol-1-yl]bicyclo[1.1.1]pentan-1-yl}-3,4-dihydro-2H-1-benzopyran-2-carboxamide], the EC50 is under 10 nM.
Next, `O=C(N[C@@H]1CC[C@@H](C(=O)N2CC(c3ccc(C(F)(F)F)cc3)C2)OC1)[C@H]1C[C@@H](O)c2cc(Cl)ccc2O1` [Compound 322, (2R,4R)-6-chloro-4-hydroxy-N-[(3R,6S)-6-{3-[4-(trifluoromethyl)phenyl]azetidine-1-carbonyl}oxan-3-yl]-3,4-dihydro-2H-1-benzopyran-2-carboxamide]: under 10 nM; `O=C(N[C@H]1CC[C@H](n2cc(OCCOC(F)(F)F)cn2)CC1)[C@H]1C[C@H](O)c2cc(Cl)ccc2O1` [Compound 447, (2R,4S)-6-chloro-4-hydroxy-N-[(1r,4R)-4-{4-[2-(trifluoromethoxy)ethoxy]-1H-pyrazol-1-yl}cyclohexyl]-3,4-dihydro-2H-1-benzopyran-2-carboxamide]: 50 to 250 nM; `O=C(NC12CC(n3cc([C@H]4C[C@@H](OC(F)(F)F)C4)nn3)(C1)C2)[C@H]1C[C@@H](O)c2cc(Cl)ccc2O1` [Compound 385, (2R,4R)-6-chloro-4-hydroxy-N-(3-{4-[cis-3-(trifluoromethoxy)cyclobutyl]-1H-1,2,3-triazol-1-yl}bicyclo[1.1.1]pentan-1-yl)-3,4-dihydro-2H-1-benzopyran-2-carboxamide]: under 10 nM.
To `O=C(COc1ccc(Cl)c(F)c1)NC12CC(n3cc(OCCCOC(F)(F)F)cn3)(C1)C2` [Compound 454, 2-(4-chloro-3-fluorophenoxy)-N-(3-{4-[3-(trifluoromethoxy)propoxy]-1H-pyrazol-1-yl}bicyclo[1.1.1]pentan-1-yl)acetamide] belongs under 10 nM; to `O=C(CO[C@H]1C[C@@H](OC(F)(F)F)C1)NC12CC(NC(=O)[C@H]3C[C@@H](O)c4cc(Cl)c(Cl)cc4O3)(C1)C2` [Compound 494, (2R,4R)-6,7-dichloro-4-hydroxy-N-[3-(2-{[(1s,3S)-3-(trifluoromethoxy)cyclobutyl]oxy}acetamido)bicyclo[1.1.1]pentan-1-yl]-3,4-dihydro-2H-1-benzopyran-2-carboxamide], under 10 nM; to `O=C(CO[C@H]1C[C@@H](OC(F)(F)F)C1)NC12CCC(NC(=O)[C@H]3C[C@@H](O)c4cc(Cl)c(F)cc4O3)(CC1)C[C@@H]2O` [Compound 488, (2R,4R)-6-chloro-7-fluoro-4-hydroxy-N-[(3S)-3-hydroxy-4-(2-{[(1s,3R)-3-(trifluoromethoxy)cyclobutyl]oxy}acetamido)bicyclo[2.2.2]octan-1-yl]-3,4-dihydro-2H-1-benzopyran-2-carboxamide], under 10 nM.
Consider `O=C(NC12CC(n3cc(OCCOC(F)(F)F)cn3)(C1)C2)[C@@H]1C[C@@H](O)c2cc(Cl)c(F)cc2O1` [Compound 432, (2S,4R)-6-chloro-7-fluoro-4-hydroxy-N-(3-{4-[2-(trifluoromethoxy)ethoxy]-1H-pyrazol-1-yl}bicyclo[1.1.1]pentan-1-yl)-3,4-dihydro-2H-1-benzopyran-2-carboxamide], for which the EC50 is under 10 nM.
For `O=C(NC12CC(n3cc(N4CC[C@@H](OC(F)F)C4)cn3)(C1)C2)[C@H]1C[C@@H](O)c2cc(Cl)ccc2O1` [Compound 318, (2R,4R)-6-chloro-N-(3-{4-[(3R)-3-(difluoromethoxy)pyrrolidin-1-yl]-1H-pyrazol-1-yl}bicyclo[1.1.1]pentan-1-yl)-4-hydroxy-3,4-dihydro-2H-1-benzopyran-2-carboxamide], the EC50 lay in the range of 50 to 250 nM.
For `O=C(NC12CC(n3cc(CCCOC(F)(F)F)cn3)(C1)C2)[C@H]1C[C@@H](O)c2cc(Cl)c(F)cc2O1` [Compound 514, (2R,4R)-6-chloro-7-fluoro-4-hydroxy-N-(3-{4-[3-(trifluoromethoxy)propyl]-1H-pyrazol-1-yl}bicyclo[1.1.1]pentan-1-yl)-3,4-dihydro-2H-1-benzopyran-2-carboxamide], the half-maximal effective concentration (EC50) is under 10 nM.
Consider `COc1ccc2nn([C@H]3CC[C@H](NC(=O)COc4ccc(Cl)c(Cl)c4)CC3)cc2n1` [Compound 596, 2-(3,4-dichlorophenoxy)-N-[(1r,4r)-4-(5-methoxy-2H-pyrazolo[4,3-b]pyridin-2-yl)cyclohexyl]acetamide], for which the EC50 is under 10 nM.
`O=C(NC12CC(n3cc(CCOC(F)(F)F)cn3)(C1)C2)[C@H]1C[C@@H](O)c2cc(Cl)c(F)cc2O1` [Compound 515, (2R,4R)-6-chloro-7-fluoro-4-hydroxy-N-(3-{4-[2-(trifluoromethoxy)ethyl]-1H-pyrazol-1-yl}bicyclo[1.1.1]pentan-1-yl)-3,4-dihydro-2H-1-benzopyran-2-carboxamide]: the EC50 was 10 to 50 nM.
To `O=C(COc1ccc(Cl)c(F)c1)N[C@H]1CC[C@H](n2cc(-c3ccc(C(F)(F)F)cn3)cn2)CC1` [Compound 598, 2-(4-chloro-3-fluorophenoxy)-N-[(1r,4r)-4-(4-[5-(trifluoromethyl)pyridin-2-yl]-1H-pyrazol-1-yl)cyclohexyl]acetamide] belongs under 10 nM; to `O=C(CO[C@H]1C[C@@H](OC(F)(F)F)C1)NC12CC(NC(=O)[C@H]3CC(O)c4cc(Cl)ccc4O3)(C1)C2` (single isomer, unassigned) [Compound 293], under 10 nM.
With `O=C(CO[C@H]1C[C@@H](OC(F)(F)F)C1)NC12CCC(NC(=O)[C@H]3C[C@@H](O)c4cc(Cl)ccc4O3)(CC1)C[C@@H]2O` [Compound 117, (2R,4R)-6-chloro-4-hydroxy-N-[(3S)-3-hydroxy-4-(2-{[(1s,3R)-3-(trifluoromethoxy)cyclobutyl]oxy}acetamido)bicyclo[2.2.2]octan-1-yl]-3,4-dihydro-2H-1-benzopyran-2-carboxamide], the half-maximal effective concentration (EC50) is under 10 nM.
Next, `O=C(N[C@H]1C[C@H]2CC[C@@H](C1)N2CCCOc1ccc(Cl)cc1)C1C[C@@H](O)c2cc(Cl)ccc2O1` (stereo partly drawn) [Compound 125, (2R,4R)-6-chloro-N-{(1R,3r,5S)-8-[3-(4-chlorophenoxy)propyl]-8-azabicyclo[3.2.1]octan-3-yl}-4-hydroxy-3,4-dihydro-2H-1-benzopyran-2-carboxamide]: 50 to 250 nM; `O=C(NC12CC(n3cc(C(=O)N4CC[C@H](OC(F)(F)F)C4)cn3)(C1)C2)[C@H]1C[C@@H](O)c2cc(C(F)(F)F)ccc2O1` [Compound 326, (2R,4R)-4-hydroxy-N-(3-{4-[(3S)-3-(trifluoromethoxy)pyrrolidine-1-carbonyl]-1H-pyrazol-1-yl}bicyclo[1.1.1]pentan-1-yl)-6-(trifluoromethyl)-3,4-dihydro-2H-1-benzopyran-2-carboxamide]: under 10 nM; `O=C(NC12CC(n3cc(OCCOCC(F)(F)F)cn3)(C1)C2)[C@H]1C[C@@H](O)c2cc(Cl)ccc2O1` [Compound 425, (2R,4R)-6-chloro-4-hydroxy-N-(3-{4-[2-(2,2,2-trifluoroethoxy)ethoxy]-1H-pyrazol-1-yl}bicyclo[1.1.1]pentan-1-yl)-3,4-dihydro-2H-1-benzopyran-2-carboxamide]: under 10 nM.
`O=C(NC12CC(n3cc(C[C@H]4C[C@@H](OC(F)(F)F)C4)cn3)(C1)C2)[C@H]1C[C@@H](O)c2cc(Cl)c(F)cc2O1` [Compound 532, (2R,4R)-6-chloro-7-fluoro-4-hydroxy-N-[3-(4-{[(1s,3R)-3-(trifluoromethoxy)cyclobutyl]methyl}-1H-pyrazol-1-yl)bicyclo[1.1.1]pentan-1-yl]-3,4-dihydro-2H-1-benzopyran-2-carboxamide]: the EC50 was under 10 nM.
To `O=C(NC12CC(c3cn(-c4ccc(OC(F)(F)F)cc4)nn3)(C1)C2)[C@H]1C[C@@H](O)c2cc(Cl)ccc2O1` [Compound 360, (2R,4R)-6-chloro-4-hydroxy-N-(3-{1-[4-(trifluoromethoxy)phenyl]-1H-1,2,3-triazol-4-yl}bicyclo[1.1.1]pentan-1-yl)-3,4-dihydro-2H-1-benzopyran-2-carboxamide] belongs under 10 nM; to `CC(=O)N1CC=C(c2cnn(C34CC(NC(=O)[C@H]5C[C@@H](O)c6cc(Cl)ccc6O5)(C3)C4)c2)CC1` [Compound 340, (2R,4R)—N-{3-[4-(1-acetyl-1,2,3,6-tetrahydropyridin-4-yl)-1H-pyrazol-1-yl]bicyclo[1.1.1]pentan-1-yl}-6-chloro-4-hydroxy-3,4-dihydro-2H-1-benzopyran-2-carboxamide], 50 to 250 nM.
